For 33 molecules, Ki results are on record in patent US11014911B2, “CDK2 inhibitors” (Pfizer Inc., priority 2019, dated 2021).

For the assay, the target named is CDK2/Cyclin E1 full length (Homo sapiens (Human), UniProt P24941). In words: CDK2/Cyclin E1 full length mobility shift assay. Type of assay: biochemical.
For orientation: Ki means a dissociation constant, usually derived from enzyme kinetics or from competition with a known ligand. For `O=C(Cc1ccno1)Nc1cc([C@H]2CC[C@@H](OC(=O)NCC(F)F)C2)[nH]n1` [Example 246, (1R,3S)-3-{3-[(1,2-oxazol-5-ylacetyl)amino]-1H-pyrazol-5-yl}cyclopentyl (2,2-difluoroethyl)carbamate], the Ki turned out to be 3.29 nM. For `O=C(Cc1ccc(F)cc1)Nc1cc([C@H]2CC[C@@H](OC(=O)NCC(F)F)C2)[nH]n1` [Example 248, (1R,3S)-3-(3-{[(4-fluorophenyl)acetyl]amino}-1H-pyrazol-5-yl)cyclopentyl (2,2-difluoroethyl)carbamate], the inhibition constant Ki came out at 2.41 nM.

As to `Cc1ncc(CC(=O)Nc2cc([C@H]3CC[C@@H](OC(=O)NCC(F)F)C3)[nH]n2)s1` [Example 249, (1R,3S)-3-(3-{[(2-methyl-1,3-thiazol-5-yl)acetyl]amino}-1H-pyrazol-5-yl)cyclopentyl (2,2-difluoroethyl)carbamate], the inhibitory constant (Ki) worked out at 2.32 nM.

In the case of `COc1cc(CC(=O)Nc2cc([C@H]3CC[C@@H](OC(=O)NCC(F)F)C3)[nH]n2)ccn1` [Example 251, (1R,3S)-3-(3-{[(2-methoxypyridin-4-yl)acetyl]amino}-1H-pyrazol-5-yl)cyclopentyl (2,2-difluoroethyl)carbamate], the Ki was 1.83 nM. To `Cc1ncc(CC(=O)Nc2cc([C@H]3CC[C@@H](OC(=O)NCC(F)(F)F)C3)[nH]n2)s1` [Example 254, (1R,3S)-3-(3-{[(2-methyl-1,3-thiazol-5-yl)acetyl]amino}-1H-pyrazol-5-yl)cyclopentyl (2,2,2-trifluoroethyl)carbamate] belongs 2.17 nM; to `COc1cc(CC(=O)Nc2cc([C@H]3CC[C@@H](OC(=O)NCC(F)(F)F)C3)[nH]n2)ccn1` [Example 255, (1R,3S)-3-(3-{[(2-methoxypyridin-4-yl)acetyl]amino}-1H-pyrazol-5-yl)cyclopentyl (2,2,2-trifluoroethyl)carbamate], 1.69 nM. On to `CNC(=O)O[C@@H]1CC[C@H](c2cc(NC(=O)Cc3ccc(OC)nc3)n[nH]2)C1` [Example 256, (1R,3S)-3-(3-{[(6-methoxypyridin-3-yl)acetyl]amino}-1H-pyrazol-5-yl)cyclopentyl methylcarbamate], for which the inhibition constant Ki worked out at 2.58 nM. Next, `COc1cc(CC(=O)Nc2cc([C@@H]3CC[C@H](OC(N)=O)C3)[nH]n2)ccn1` [Example 257, (1S,3R)-3-(3-{[(2-methoxypyridin-4-yl)acetyl]amino}-1H-pyrazol-5-yl)cyclopentyl carbamate]: 4.2 nM; `CC(C)NC(=O)O[C@@H]1CC[C@H](c2cc(NC(=O)c3cncn3C)n[nH]2)C1` [Example 260, (1R,3S)-3-(3-{[(1-methyl-1H-imidazol-5-yl)carbonyl]amino}-1H-pyrazol-5-yl)cyclopentyl propan-2-ylcarbamate]: 2.89 nM; `CC(C)NC(=O)O[C@H]1CC[C@@H](c2cc(NC(=O)Cc3ccccn3)n[nH]2)C1` [Example 264, (1S,3R)-3-{3-[(pyridin-2-ylacetyl)amino]-1H-pyrazol-5-yl}cyclopentyl propan-2-ylcarbamate]: 1.83 nM. Next, `CC(C)NC(=O)O[C@@H]1CC[C@H](c2cc(NC(=O)Cc3ccccn3)n[nH]2)C1` [Example 265, (1R,3S)-3-{3-[(pyridin-2-ylacetyl)amino]-1H-pyrazol-5-yl}cyclopentyl propan-2-ylcarbamate]: 1.91 nM.

For `CC(C)NC(=O)O[C@@H]1CC[C@H](c2cc(NC(=O)Cc3ccn(C)n3)n[nH]2)C1` [Example 267, (1R,3S)-3-(3-{[(1-methyl-1H-pyrazol-3-yl)acetyl]amino}-1H-pyrazol-5-yl)cyclopentyl propan-2-ylcarbamate], the Ki was determined as 3.02 nM.

With `Cc1cc(CC(=O)Nc2cc([C@@H]3CC[C@H](OC(=O)NC(C)C)C3)[nH]n2)no1` [Example 268, (1S,3R)-3-(3-{[(5-methyl-1,2-oxazol-3-yl)acetyl]amino}-1H-pyrazol-5-yl)cyclopentyl propan-2-ylcarbamate], the Ki came to 0.97 nM. Next, `Cc1cc(CC(=O)Nc2cc([C@H]3CC[C@@H](OC(=O)NC(C)C)C3)[nH]n2)no1` [Example 269, (1R,3S)-3-(3-{[(5-methyl-1,2-oxazol-3-yl)acetyl]amino}-1H-pyrazol-5-yl)cyclopentyl propan-2-ylcarbamate]: 1.68 nM; `Cc1cnc(CC(=O)Nc2cc([C@H]3CC[C@@H](OC(=O)NC(C)C)C3)[nH]n2)o1` [Example 271, (1R,3S)-3-(3-{[(5-methyl-1,3-oxazol-2-yl)acetyl]amino}-1H-pyrazol-5-yl)cyclopentyl propan-2-ylcarbamate]: 1.57 nM; `Cc1cnc(CC(=O)Nc2cc([C@H]3CC[C@@H](OC(=O)NC(C)C)C3)[nH]n2)s1` [Example 273, (1R,3S)-3-(3-{[(5-methyl-1,3-thiazol-2-yl)acetyl]amino}-1H-pyrazol-5-yl)cyclopentyl propan-2-ylcarbamate]: 3.08 nM. Next, `Cc1csc(CC(=O)Nc2cc([C@H]3CC[C@@H](OC(=O)NC(C)C)C3)[nH]n2)n1` [Example 274, (1R,3S)-3-(3-{[(4-methyl-1,3-thiazol-2-yl)acetyl]amino}-1H-pyrazol-5-yl)cyclopentyl propan-2-ylcarbamate]: 2.62 nM. On to `COc1cnc(CC(=O)Nc2cc([C@H]3CC[C@@H](OC(=O)NC(C)C)C3)[nH]n2)cn1` [Example 277, (1R,3S)-3-(3-{[(5-methoxypyrazin-2-yl)acetyl]amino}-1H-pyrazol-5-yl)cyclopentyl propan-2-ylcarbamate], for which the Ki turned out to be 0.98 nM. Next, `COc1cnc(CC(=O)Nc2cc([C@H]3CC[C@@H](OC(=O)NC(C)C)C3)[nH]n2)s1` [Example 280, (1R,3S)-3-(3-{[(5-methoxy-1,3-thiazol-2-yl)acetyl]amino}-1H-pyrazol-5-yl)cyclopentyl propan-2-ylcarbamate]: 2.12 nM; `Cc1nc(CC(=O)Nc2cc([C@H]3CC[C@@H](OC(=O)NC(C)C)C3)[nH]n2)ccc1Cl` [Example 282, (1R,3S)-3-(3-{[(5-chloro-6-methylpyridin-2-yl)acetyl]amino}-1H-pyrazol-5-yl)cyclopentyl propan-2-ylcarbamate]: 2.34 nM; `CC(C)NC(=O)O[C@@H]1CC[C@H](c2cc(NC(=O)Cc3cccc4scnc34)n[nH]2)C1` [Example 283, (1R,3S)-3-{3-[(1,3-benzothiazol-4-ylacetyl)amino]-1H-pyrazol-5-yl}cyclopentyl propan-2-ylcarbamate]: 4.6 nM.

As to `CC(C)NC(=O)O[C@@H]1CC[C@H](c2cc(NC(=O)Cc3cccc4ncsc34)n[nH]2)C1` [Example 284, (1R,3S)-3-{3-[(1,3-benzothiazol-7-ylacetyl)amino]-1H-pyrazol-5-yl}cyclopentyl propan-2-ylcarbamate], the Ki worked out at 0.6 nM. Next, `COc1cc(CC(=O)Nc2cc([C@H]3CC[C@@H](OC(=O)NC(C)C)C3)[nH]n2)c(OC)cn1` [Example 285, (1R,3S)-3-(3-{[(2,5-dimethoxypyridin-4-yl)acetyl]amino}-1H-pyrazol-5-yl)cyclopentyl propan-2-ylcarbamate]: 3.97 nM; `CC(C)NC(=O)O[C@@H]1CC[C@H](c2cc(NC(=O)Cc3ccc(C(F)(F)F)cn3)n[nH]2)C1` [Example 286, (1R,3S)-3-[3-({[5-(trifluoromethyl)pyridin-2-yl]acetyl}amino)-1H-pyrazol-5-yl]cyclopentyl propan-2-ylcarbamate]: 4.14 nM; `CC(C)NC(=O)O[C@@H]1CC[C@H](c2cc(NC(=O)Cc3cnc(C(F)(F)F)cn3)n[nH]2)C1` [Example 287, (1R,3S)-3-[3-({[5-(trifluoromethyl)pyrazin-2-yl]acetyl}amino)-1H-pyrazol-5-yl]cyclopentyl propan-2-ylcarbamate]: 2.26 nM.

For the molecule `COc1ccc(S(C)(=O)=O)c(CC(=O)Nc2cc([C@H]3CC[C@@H](OC(=O)NC(C)C)C3)[nH]n2)c1` [Example 288, (1R,3S)-3-[3-({[5-methoxy-2-(methylsulfonyl)phenyl]acetyl}amino)-1H-pyrazol-5-yl]cyclopentyl propan-2-ylcarbamate], the inhibition constant Ki stood at 0.39 nM. As to `Cc1cnc(CC(=O)Nc2cc([C@H]3CC[C@@H](OC(=O)N(C)C(C)C)C3)[nH]n2)o1` [Example 290, (1R,3S)-3-(3-{[(5-methyl-1,3-oxazol-2-yl)acetyl]amino}-1H-pyrazol-5-yl)cyclopentyl methyl(propan-2-yl)carbamate], the Ki amounted to 1.45 nM. Next, `Cc1coc(CC(=O)Nc2cc([C@H]3CC[C@@H](OC(=O)NC(C)(C)C)C3)[nH]n2)n1` [Example 296, (1R,3S)-3-(3-{[(4-methyl-1,3-oxazol-2-yl)acetyl]amino}-1H-pyrazol-5-yl)cyclopentyl tert-butylcarbamate]: 0.3 nM; `Cc1cn(CC(=O)Nc2cc([C@H]3CC[C@@H](OC(=O)NC(C)(C)C)C3)[nH]n2)nn1` [Example 297, (1R,3S)-3-(3-{[(4-methyl-1H-1,2,3-triazol-1-yl)acetyl]amino}-1H-pyrazol-5-yl)cyclopentyl tert-butylcarbamate]: 1.17 nM.

For `CC(C)(C)NC(=O)O[C@@H]1CC[C@H](c2cc(NC(=O)Cc3ccc(F)cn3)n[nH]2)C1` [Example 300, (1R,3S)-3-(3-{[(5-fluoropyridin-2-yl)acetyl]amino}-1H-pyrazol-5-yl)cyclopentyl tert-butylcarbamate], the Ki stood at 0.65 nM. To `CC(C)(C)NC(=O)O[C@@H]1CC[C@H](c2cc(NC(=O)Cc3ncccc3F)n[nH]2)C1` [Example 301, (1R,3S)-3-(3-{[(3-fluoropyridin-2-yl)acetyl]amino}-1H-pyrazol-5-yl)cyclopentyl tert-butylcarbamate] belongs 0.55 nM; to `COc1cc(C(=O)Nc2cc([C@H]3CC[C@@H](OC(=O)NC(C)(C)C)C3)[nH]n2)n(C)n1` [Example 302, (1R,3S)-3-(3-{[(3-methoxy-1-methyl-1H-pyrazol-5-yl)carbonyl]amino}-1H-pyrazol-5-yl)cyclopentyl tert-butylcarbamate], 0.5 nM.

With `Cc1cnc(CC(=O)Nc2cc([C@H]3CC[C@@H](OC(=O)NC(C)(C)C)C3)[nH]n2)s1` [Example 303, (1R,3S)-3-(3-{[(5-methyl-1,3-thiazol-2-yl)acetyl]amino}-1H-pyrazol-5-yl)cyclopentyl tert-butylcarbamate], the Ki amounted to 0.33 nM.
